Measurements taken from patent US12077503B2, “Substituted cyclic amides and their use as herbicides” (FMC CORPORATION, priority 2015, dated 2024).
Read-outs that look alike come from different tables or passages of the source.

Tests used:
Format in all cases: in vivo
[1] = tested on: barnyardgrass (Echinochloa crus-galli); test: Test A preemergence; conditions: Echinochloa crus-galli, pre-emergence, 240 h, preemergence, read-out: Barnyardgrass plant response rating; for pest or weed control at 125 g/ha: 125 g ai/ha, 0 to 100 scale where 0 is no effect and 100 is complete control; for pest or weed control at 500 g/ha: 500 g ai/ha, visual injury rating about 10 d after treatment, 0 to 100 scale (0 no effect, 100 complete control)
Method in brief: (§1)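 Greenhouse, ~10 d after spray; visual injury vs untreated controls, 0 = no effect, 100 = complete control. Preemergence: directed soil spray over planted seeds. Postemergence: plants 2–10 cm, 1–2 leaf stage. Loam/sand blend. Compound in non-phytotoxic solvent with surfactant.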

[2] = tested on: Galium (catchweed bedstraw, Galium aparine); test: Test A postemergence; conditions: Galium, post-emergence, 240 h; for pest or weed control at 125 g/ha: 125 g ai/ha
Method in brief: as §1

[3] = tested on: Kochia (Kochia scoparia); test: Test A postemergence; conditions: Bassia scoparia, post-emergence, 240 h; for pest or weed control at 125 g/ha: 125 g ai/ha
Method in brief: as §1

[4] = tested on: barnyardgrass (Echinochloa crus-galli); test: Test A postemergence; conditions: Echinochloa crus-galli, post-emergence, 240 h; for pest or weed control at 125 g/ha: 125 g ai/ha
Method in brief: as §1

[5] = tested on: blackgrass (Alopecurus myosuroides); test: Test A postemergence; conditions: Alopecurus myosuroides, post-emergence, 240 h; for pest or weed control at 125 g/ha: 125 g ai/ha
Method in brief: as §1

[6] = tested on: corn (Zea mays); test: Test A postemergence; conditions: Zea mays, post-emergence, 240 h
Method in brief: as §1

[7] = tested on: giant foxtail (Setaria faberii); test: Test A postemergence; conditions: Setaria faberi, post-emergence, 240 h; for pest or weed control at 125 g/ha: 125 g ai/ha
Method in brief: as §1

[8] = tested on: pigweed (Amaranthus retroflexus); test: Test A postemergence; conditions: Amaranthus retroflexus, post-emergence, 240 h; for pest or weed control at 125 g/ha: 125 g ai/ha
Method in brief: as §1

[9] = tested on: ragweed (common ragweed, Ambrosia elatior); test: Test A postemergence; conditions: Ambrosia artemisiifolia, post-emergence, 240 h; for pest or weed control at 125 g/ha: 125 g ai/ha
Method in brief: as §1

[10] = tested on: ryegrass, Italian (Italian ryegrass, Lolium multiflorum); test: Test A postemergence; conditions: Lolium multiflorum, post-emergence, 240 h; for pest or weed control at 125 g/ha: 125 g ai/ha
Method in brief: as §1

[11] = tested on: wheat (Triticum aestivum); test: Test A postemergence; conditions: Triticum aestivum, post-emergence, 240 h; for plant injury at 125 g/ha: 125 g ai/ha
Method in brief: as §1

[12] = tested on: barnyardgrass (Echinochloa crus-galli); test: Test B flooded paddy test; conditions: Echinochloa crus-galli, 250 g ai/ha, Flood, read-out: Barnyardgrass plant response rating
Method in brief: (§2)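 2-leaf plants; pots flooded 3 cm over soil; cpd added to paddy water; depth held; greenhouse 13–15 d; visual rating vs controls, 0 = no effect, 100 = complete control.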

[13] = tested on: ducksalad (Heteranthera limosa); test: Test B flooded paddy test; conditions: Heteranthera limosa, 250 g ai/ha, Flood, read-out: Ducksalad plant response rating
Method in brief: as §2

[14] = tested on: rice (Oryra sativa); test: Test B flooded paddy test; conditions: Oryza sativa, 250 g ai/ha, Flood, read-out: Rice plant response rating
Method in brief: as §2

[15] = tested on: sedge, umbrella (small-flower umbrella sedge, Cyperus difformis); test: Test B flooded paddy test; conditions: Cyperus difformis, 250 g ai/ha, Flood, read-out: Sedge, Umbrella plant response rating
Method in brief: as §2

[16] = 0 to 100 scale where 0 is no effect and 100 is complete control
[17] = scale of 0 to 100 where 0 is no effect and 100 is complete control

CN1C[C@H](c2csc(C(F)F)c2)[C@@H](C(=O)Nc2cccc(F)c2F)C1=O [Compound 1122]
pest or weed control at 125 g/ha ([1]; approx. 10 d): 90% | pest or weed control at 500 g/ha [1]: 90% | pest or weed control at 125 g/ha ([2]; postemergence, visual injury on 0 to 100 scale (0 no effect, 100 complete control), approx. 10 d, read-out: Galium plant response rating): 50% | pest or weed control at 500 g/ha ([2]; 500 g ai/ha, postemergence, 0 to 100 scale, 0 is no effect, 100 is complete control, read-out: Galium plant response rating): 60% | pest or weed control at 125 g/ha ([3]; postemergence, visual injury on 0 to 100 scale (0 no effect, 100 complete control), approx. 10 d, read-out: Kochia plant response rating): 60% | pest or weed control at 500 g/ha ([3]; 500 g ai/ha, postemergence, 0 to 100 scale, 0 is no effect, 100 is complete control, read-out: Kochia plant response rating): 60% | pest or weed control at 125 g/ha ([4]; postemergence, visual injury on 0 to 100 scale (0 no effect, 100 complete control), approx. 10 d, read-out: Barnyardgrass plant response rating): 90% | pest or weed control at 500 g/ha ([4]; 500 g ai/ha, postemergence, 0 to 100 scale, 0 is no effect, 100 is complete control, read-out: Barnyardgrass plant response rating): 90% | pest or weed control at 125 g/ha ([5]; postemergence, visual injury on 0 to 100 scale (0 no effect, 100 complete control), approx. 10 d, read-out: Blackgrass plant response rating): 40% | pest or weed control at 500 g/ha ([5]; 500 g ai/ha, postemergence, 0 to 100 scale, 0 is no effect, 100 is complete control, read-out: Blackgrass plant response rating): 60% | plant injury at 125 g/ha ([6]; 125 g ai/ha, postemergence, visual injury on 0 to 100 scale (0 no effect, 100 complete control), approx. 10 d, read-out: Corn plant response rating): 50% | plant injury at 500 g/ha ([6]; 500 g ai/ha, postemergence, 0 to 100 scale, 0 is no effect, 100 is complete control, read-out: Corn plant response rating): 90% | pest or weed control at 125 g/ha ([7]; postemergence, visual injury on 0 to 100 scale (0 no effect, 100 complete control), approx. 10 d, read-out: Foxtail, Giant plant response rating): 80% | pest or weed control at 500 g/ha ([7]; 500 g ai/ha, postemergence, 0 to 100 scale, 0 is no effect, 100 is complete control, read-out: Foxtail, Giant plant response rating): 90% | pest or weed control at 125 g/ha ([8]; postemergence, visual injury on 0 to 100 scale (0 no effect, 100 complete control), approx. 10 d, read-out: Pigweed plant response rating): 20% | pest or weed control at 500 g/ha ([8]; 500 g ai/ha, postemergence, 0 to 100 scale, 0 is no effect, 100 is complete control, read-out: Pigweed plant response rating): 40% | pest or weed control at 125 g/ha ([9]; postemergence, visual injury on 0 to 100 scale (0 no effect, 100 complete control), approx. 10 d, read-out: Ragweed plant response rating): 50% | pest or weed control at 500 g/ha ([9]; 500 g ai/ha, postemergence, 0 to 100 scale, 0 is no effect, 100 is complete control, read-out: Ragweed plant response rating): 50% | pest or weed control at 125 g/ha ([10]; postemergence, visual injury on 0 to 100 scale (0 no effect, 100 complete control), approx. 10 d, read-out: Ryegrass, Italian plant response rating): 30% | pest or weed control at 500 g/ha ([10]; 500 g ai/ha, postemergence, 0 to 100 scale, 0 is no effect, 100 is complete control, read-out: Ryegrass, Italian plant response rating): 60% | plant injury at 125 g/ha ([11]; postemergence, visual injury on 0 to 100 scale (0 no effect, 100 complete control), approx. 10 d, read-out: Wheat plant response rating): 50% | plant injury at 500 g/ha ([11]; 500 g ai/ha, postemergence, 0 to 100 scale, 0 is no effect, 100 is complete control, read-out: Wheat plant response rating): 70% | pest or weed control at 250 g/ha [12, 16]: 70% | pest or weed control at 250 g/ha [13, 16]: 100% | pest or weed control at 250 g/ha [14, 16]: 25% | pest or weed control at 250 g/ha [15, 16]: 30%

Cc1cc(F)ccc1NC(=O)[C@H]1C(=O)N(C)C[C@@H]1c1ccc(C(F)(F)F)cc1 [Compound 936]
pest or weed control at 125 g/ha [1]: 70% | pest or weed control at 500 g/ha [1]: 90% | pest or weed control at 125 g/ha ([2]; Postemergence, visual injury after approximately 10 d, 0 to 100 scale where 0 is no effect and 100 is complete control, read-out: Plant response rating, Galium): 40% | pest or weed control at 125 g/ha ([3]; Postemergence, visual injury after approximately 10 d, 0 to 100 scale where 0 is no effect and 100 is complete control, read-out: Plant response rating, Kochia): 20% | pest or weed control at 125 g/ha ([4]; Postemergence, visual injury after approximately 10 d, 0 to 100 scale where 0 is no effect and 100 is complete control, read-out: Plant response rating, Barnyardgrass): 60% | pest or weed control at 125 g/ha ([5]; Postemergence, visual injury after approximately 10 d, 0 to 100 scale where 0 is no effect and 100 is complete control, read-out: Plant response rating, Blackgrass): 30% | Corn plant response rating (crop injury, 0 = no effect, 100 = complete kill) at 125 g/ha ([6]; 125 g ai/ha, Postemergence, visual injury after approximately 10 d, 0 to 100 scale where 0 is no effect and 100 is complete control): 30% | pest or weed control at 125 g/ha ([7]; Postemergence, visual injury after approximately 10 d, 0 to 100 scale where 0 is no effect and 100 is complete control, read-out: Plant response rating, Foxtail, Giant): 90% | pest or weed control at 125 g/ha ([8]; Postemergence, visual injury after approximately 10 d, 0 to 100 scale where 0 is no effect and 100 is complete control, read-out: Plant response rating, Pigweed): 20% | pest or weed control at 125 g/ha ([9]; Postemergence, visual injury after approximately 10 d, 0 to 100 scale where 0 is no effect and 100 is complete control, read-out: Plant response rating, Ragweed): 0% | pest or weed control at 125 g/ha ([10]; Postemergence, visual injury after approximately 10 d, 0 to 100 scale where 0 is no effect and 100 is complete control, read-out: Plant response rating, Ryegrass, Italian): 0% | plant injury at 125 g/ha ([11]; Postemergence, visual injury after approximately 10 d, 0 to 100 scale where 0 is no effect and 100 is complete control, read-out: Plant response rating, Wheat): 30% | pest or weed control at 250 g/ha [12, 17]: 0% | pest or weed control at 250 g/ha [13, 17]: 85% | pest or weed control at 250 g/ha [14, 17]: 0% | pest or weed control at 250 g/ha [15, 17]: 0%
